Experimental data as given in patent US11208435B2, “Verticilide enantiomer and methods of inhibiting cardiac ryanodine receptor-mediated intracellular calcium release” (Vanderbilt University, priority 2017, dated 2021).

Legend:
Casq2^−/− mice = test: Catecholamine-induced ventricular arrhythmia, ECG in Casq2-/- mice; type: in vivo, mouse; settings: 30 mg/kg i.p.
Procedure: (FIG. 3A) Isolated cardiomyocytes were field stimulated at 3 Hz for 20 seconds followed by 40 seconds recording of SCR events (†). Application of 10 mM caffeine (caff) was used to measure SR Ca2+ content. (FIG. 3B) SCR frequency following cessation of pacing. N=63, 27, 31, 63, 30, and 27 cells for […] ent-1, respectively. **p<0.01, ***p<0.001 vs DMSO by t-test. (FIG. 3C) Representative heart rate traces in Casq2−/− mice treated with DMSO or ent-1. Isoproterenol (3.0 mg/kg i.p.) was injected at 0 s. Rhythm strips show arrhythmia features. Ectopic beats (†) produce a variable HR in the traces. (FIG. 3D) Quantification of catecholamine-induced ectopic beats by surface electrocardiogram in Casq2−/− mice injected intraperitoneally with 30 mg/kg (drug/body weight) nat-1 or ent-1 or DMSO of equivalent volume 30 minutes prior to recordings. ***p<0.001 vs DMSO or ###p<0.001 vs nat-1 by Mann-Whitney U-test. (FIG. 3E) Incidence of ventricular tachycardia (VT). p=0.0305 for ent-1 vs DMSO (*) or ent-1 vs nat-1 (#) by Fisher's exact test. N=22 mice per group (D and E). Data in B and D presented as mean±SEM.
To determine whether ent-1 inhibition of Ca^2+ release in cardiomyocytes in vitro translates into activity against ventricular arrhythmia in vivo, Casq2^−/− mice were injected intraperitoneally with 30 mg/kg nat-1, ent-1, or DMSO of equivalent volume. […]

RyR2 [1] = molecular target: T1, RyR2 (Sus scrofa, UniProt A0A5G2R1W3); test: [3H]ryanodine binding to cardiac SR; design: species or system porcine; settings: for [3H]ryanodine binding (RyR2 activity): 50 μM, three hours
T1 construct: cardiac ventricle (RyR2); from tissue; host or cells: porcine cardiac ventricle sarcoplasmic reticulum
Procedure: (§1) (FIG. 2A) Representative confocal line scans of Ca2+ sparks in the absence (DMSO) or presence of 25 μM nat-1 or ent-1 in permeabilized Casq2−/− cardiomyocytes. (FIG. 2B) Ca2+ spark frequency in Casq2−/− cells treated with 25 μM nat-1, 7, 8, and their respective enantiomers. (FIG. 2C) Comparison of [3H]ryanodine binding to SR isolated from porcine longissimus dorsi (RyR1) or cardiac ventricle (RyR2) in the presence of 50 μM nat-1, ent-1, or tetracaine (tet). (FIG. 2D) Dose response curves for ent-1 and tet inhibition of [3H]ryanodine binding to RyR2. (FIG. 2E) Representative Ca2+ sparks from permeabilized wild-type cardiomyocytes treated with 3 μM ent-1, 25 μM flecainide, or 50 μM tetracaine. Graph indicates amplitude of Ca2+ release of the selected representative sparks over time. (FIG. 2F) Percent change in spark frequency, amplitude, mass, leak, and SR Ca2+ content relative to vehicle (DMSO), obtained from wild-type myocytes. SR Ca2+ content was measured as the Ca2+ transient amplitude elicited by application of 10 mM caffeine (n≥5 cells per group). Data are presented as mean±SEM. N≥30 cells per group for A, B, and F. N=4 replicates for each concentration tested in C and D. *p<0.05 vs DMSO, **p<0.01 vs DMSO, ***p<0.001 vs DMSO by 1-way ANOVA with Tukey's post-hoc test (B) or t-test (C, D, and F).
(§2) Skeletal and cardiac SR were incubated with 50 μM nat-1, ent-1, and tetracaine for three hours. Nat-1 increased RyR1 activity, but had no effect on RyR2 (FIG. 2C). Conversely, ent-1 inhibited RyR2, but had no effect on RyR1. The well-established RyR inhibitor, tetracaine, inhibited both isoforms. Ent-1 was selected to generate full dose response curves for both cardiac and skeletal SR. Ent-1 inhibited RyR2 in a concentration-dependent manner with an apparent IC50 of approximately 0.1 μM and maximal inhibition of approximately 20% (FIG. 2D), but had no effect on RyR1 up to 50 μM (Figure S2). […] To further characterize the Ca^2+ release inhibition by ent-1, the present inventors applied a lower concentration (3 μM) to wild type mouse myocytes and compared results to two other classical Ca^2+ release inhibitors, flecainide and tetracaine (representative line scans and sparks are shown in FIG. 2E).

insect RyR = settings: read-out: IC50, binding insect RyR; cited from earlier work
RyR2 [2] = molecular target: T2, RyR2 (Mus musculus, UniProt E9Q401); test: Ca2+ sparks in saponin-permeabilized Casq2-/- ventricular myocytes; type: cell-based; settings: 25 μM, permeabilized Casq2-/- cardiomyocytes, vs DMSO
T2 construct: spontaneous openings of intracellular RyR2; endogenous in cells; host or cells: ventricular cardiomyocytes isolated from Casq2-/- mice (A1, A6) or wild-type mice (A5)
Procedure: (FIG. 2A) Representative confocal line scans of Ca2+ sparks in the absence (DMSO) or presence of 25 μM nat-1 or ent-1 in permeabilized Casq2−/− cardiomyocytes. (FIG. 2B) Ca2+ spark frequency in Casq2−/− cells treated with 25 μM nat-1, 7, 8, and their respective enantiomers. (FIG. 2C) Comparison of [3H]ryanodine binding to SR isolated from porcine longissimus dorsi (RyR1) or cardiac ventricle (RyR2) in the presence of 50 μM nat-1, ent-1, or tetracaine (tet). (FIG. 2D) Dose response curves for ent-1 and tet inhibition of [3H]ryanodine binding to RyR2. (FIG. 2E) Representative Ca2+ sparks from permeabilized wild-type cardiomyocytes treated with 3 μM ent-1, 25 μM flecainide, or 50 μM tetracaine. […] SR Ca2+ content was measured as the Ca2+ transient amplitude elicited by application of 10 mM caffeine (n≥5 cells per group). […]
Ventricular mouse myocytes were isolated, permeabilized with saponin to enable equivalent access of the compounds to the SR membrane, and incubated with DMSO or 25 μM nat- and ent-1, 7, 8. RyR2 activity was measured in the form of Ca^2+ sparks, which are elementary Ca^2+ release events generated by spontaneous openings of intracellular RyR2 Ca^2+ release channels. […] To confirm that [Ca^2+]free was not altered by any of the compounds, Fluo-4 fluorescence was measured under spark assay conditions. […]

[3] = [Ca2+]free by Fluo-4 fluorescence under spark assay conditions; type: physicochemical; settings: 25 μM, 10 minutes in internal spark solution
Procedure: Ventricular mouse myocytes were isolated, permeabilized with saponin to enable equivalent access of the compounds to the SR membrane, and incubated with DMSO or 25 μM nat- and ent-1, 7, 8. RyR2 activity was measured in the form of Ca^2+ sparks, which are elementary Ca^2+ release events generated by spontaneous openings of intracellular RyR2 Ca^2+ release channels. […] Cardiac SR Ca^2+ release is sensitive to the Ca^2+ concentration present at the cytosolic face of RyR2. To confirm that [Ca^2+]free was not altered by any of the compounds, Fluo-4 fluorescence was measured under spark assay conditions. The internal spark solution was incubated with DMSO or 25 μM nat-1, 7, 8, and their respective enantiomers for 10 minutes and [Ca^2+]free was calculated from a set of Ca^2+ standards.

RyR1 = molecular target: T3, RyR1 (Sus scrofa, UniProt P16960); test: [3H]ryanodine binding to skeletal muscle SR; design: species or system porcine; settings: 50 μM, three hours
T3 construct: SR isolated from porcine longissimus dorsi (RyR1); from tissue; host or cells: porcine longissimus dorsi sarcoplasmic reticulum
Procedure: as §1, with “F). […]” for “F).”

RyR2 [4] = molecular target: T2, RyR2; test: Ca2+ sparks in permeabilized wild-type myocytes; type: cell-based; settings: 3 μM ent-1, 25 μM flecainide, 50 μM tetracaine
Procedure: as §1, §2

spontaneous Ca^2+ waves = settings: 10 μM; cited from earlier work

T1 sequence (A0A5G2R1W3 20-4900): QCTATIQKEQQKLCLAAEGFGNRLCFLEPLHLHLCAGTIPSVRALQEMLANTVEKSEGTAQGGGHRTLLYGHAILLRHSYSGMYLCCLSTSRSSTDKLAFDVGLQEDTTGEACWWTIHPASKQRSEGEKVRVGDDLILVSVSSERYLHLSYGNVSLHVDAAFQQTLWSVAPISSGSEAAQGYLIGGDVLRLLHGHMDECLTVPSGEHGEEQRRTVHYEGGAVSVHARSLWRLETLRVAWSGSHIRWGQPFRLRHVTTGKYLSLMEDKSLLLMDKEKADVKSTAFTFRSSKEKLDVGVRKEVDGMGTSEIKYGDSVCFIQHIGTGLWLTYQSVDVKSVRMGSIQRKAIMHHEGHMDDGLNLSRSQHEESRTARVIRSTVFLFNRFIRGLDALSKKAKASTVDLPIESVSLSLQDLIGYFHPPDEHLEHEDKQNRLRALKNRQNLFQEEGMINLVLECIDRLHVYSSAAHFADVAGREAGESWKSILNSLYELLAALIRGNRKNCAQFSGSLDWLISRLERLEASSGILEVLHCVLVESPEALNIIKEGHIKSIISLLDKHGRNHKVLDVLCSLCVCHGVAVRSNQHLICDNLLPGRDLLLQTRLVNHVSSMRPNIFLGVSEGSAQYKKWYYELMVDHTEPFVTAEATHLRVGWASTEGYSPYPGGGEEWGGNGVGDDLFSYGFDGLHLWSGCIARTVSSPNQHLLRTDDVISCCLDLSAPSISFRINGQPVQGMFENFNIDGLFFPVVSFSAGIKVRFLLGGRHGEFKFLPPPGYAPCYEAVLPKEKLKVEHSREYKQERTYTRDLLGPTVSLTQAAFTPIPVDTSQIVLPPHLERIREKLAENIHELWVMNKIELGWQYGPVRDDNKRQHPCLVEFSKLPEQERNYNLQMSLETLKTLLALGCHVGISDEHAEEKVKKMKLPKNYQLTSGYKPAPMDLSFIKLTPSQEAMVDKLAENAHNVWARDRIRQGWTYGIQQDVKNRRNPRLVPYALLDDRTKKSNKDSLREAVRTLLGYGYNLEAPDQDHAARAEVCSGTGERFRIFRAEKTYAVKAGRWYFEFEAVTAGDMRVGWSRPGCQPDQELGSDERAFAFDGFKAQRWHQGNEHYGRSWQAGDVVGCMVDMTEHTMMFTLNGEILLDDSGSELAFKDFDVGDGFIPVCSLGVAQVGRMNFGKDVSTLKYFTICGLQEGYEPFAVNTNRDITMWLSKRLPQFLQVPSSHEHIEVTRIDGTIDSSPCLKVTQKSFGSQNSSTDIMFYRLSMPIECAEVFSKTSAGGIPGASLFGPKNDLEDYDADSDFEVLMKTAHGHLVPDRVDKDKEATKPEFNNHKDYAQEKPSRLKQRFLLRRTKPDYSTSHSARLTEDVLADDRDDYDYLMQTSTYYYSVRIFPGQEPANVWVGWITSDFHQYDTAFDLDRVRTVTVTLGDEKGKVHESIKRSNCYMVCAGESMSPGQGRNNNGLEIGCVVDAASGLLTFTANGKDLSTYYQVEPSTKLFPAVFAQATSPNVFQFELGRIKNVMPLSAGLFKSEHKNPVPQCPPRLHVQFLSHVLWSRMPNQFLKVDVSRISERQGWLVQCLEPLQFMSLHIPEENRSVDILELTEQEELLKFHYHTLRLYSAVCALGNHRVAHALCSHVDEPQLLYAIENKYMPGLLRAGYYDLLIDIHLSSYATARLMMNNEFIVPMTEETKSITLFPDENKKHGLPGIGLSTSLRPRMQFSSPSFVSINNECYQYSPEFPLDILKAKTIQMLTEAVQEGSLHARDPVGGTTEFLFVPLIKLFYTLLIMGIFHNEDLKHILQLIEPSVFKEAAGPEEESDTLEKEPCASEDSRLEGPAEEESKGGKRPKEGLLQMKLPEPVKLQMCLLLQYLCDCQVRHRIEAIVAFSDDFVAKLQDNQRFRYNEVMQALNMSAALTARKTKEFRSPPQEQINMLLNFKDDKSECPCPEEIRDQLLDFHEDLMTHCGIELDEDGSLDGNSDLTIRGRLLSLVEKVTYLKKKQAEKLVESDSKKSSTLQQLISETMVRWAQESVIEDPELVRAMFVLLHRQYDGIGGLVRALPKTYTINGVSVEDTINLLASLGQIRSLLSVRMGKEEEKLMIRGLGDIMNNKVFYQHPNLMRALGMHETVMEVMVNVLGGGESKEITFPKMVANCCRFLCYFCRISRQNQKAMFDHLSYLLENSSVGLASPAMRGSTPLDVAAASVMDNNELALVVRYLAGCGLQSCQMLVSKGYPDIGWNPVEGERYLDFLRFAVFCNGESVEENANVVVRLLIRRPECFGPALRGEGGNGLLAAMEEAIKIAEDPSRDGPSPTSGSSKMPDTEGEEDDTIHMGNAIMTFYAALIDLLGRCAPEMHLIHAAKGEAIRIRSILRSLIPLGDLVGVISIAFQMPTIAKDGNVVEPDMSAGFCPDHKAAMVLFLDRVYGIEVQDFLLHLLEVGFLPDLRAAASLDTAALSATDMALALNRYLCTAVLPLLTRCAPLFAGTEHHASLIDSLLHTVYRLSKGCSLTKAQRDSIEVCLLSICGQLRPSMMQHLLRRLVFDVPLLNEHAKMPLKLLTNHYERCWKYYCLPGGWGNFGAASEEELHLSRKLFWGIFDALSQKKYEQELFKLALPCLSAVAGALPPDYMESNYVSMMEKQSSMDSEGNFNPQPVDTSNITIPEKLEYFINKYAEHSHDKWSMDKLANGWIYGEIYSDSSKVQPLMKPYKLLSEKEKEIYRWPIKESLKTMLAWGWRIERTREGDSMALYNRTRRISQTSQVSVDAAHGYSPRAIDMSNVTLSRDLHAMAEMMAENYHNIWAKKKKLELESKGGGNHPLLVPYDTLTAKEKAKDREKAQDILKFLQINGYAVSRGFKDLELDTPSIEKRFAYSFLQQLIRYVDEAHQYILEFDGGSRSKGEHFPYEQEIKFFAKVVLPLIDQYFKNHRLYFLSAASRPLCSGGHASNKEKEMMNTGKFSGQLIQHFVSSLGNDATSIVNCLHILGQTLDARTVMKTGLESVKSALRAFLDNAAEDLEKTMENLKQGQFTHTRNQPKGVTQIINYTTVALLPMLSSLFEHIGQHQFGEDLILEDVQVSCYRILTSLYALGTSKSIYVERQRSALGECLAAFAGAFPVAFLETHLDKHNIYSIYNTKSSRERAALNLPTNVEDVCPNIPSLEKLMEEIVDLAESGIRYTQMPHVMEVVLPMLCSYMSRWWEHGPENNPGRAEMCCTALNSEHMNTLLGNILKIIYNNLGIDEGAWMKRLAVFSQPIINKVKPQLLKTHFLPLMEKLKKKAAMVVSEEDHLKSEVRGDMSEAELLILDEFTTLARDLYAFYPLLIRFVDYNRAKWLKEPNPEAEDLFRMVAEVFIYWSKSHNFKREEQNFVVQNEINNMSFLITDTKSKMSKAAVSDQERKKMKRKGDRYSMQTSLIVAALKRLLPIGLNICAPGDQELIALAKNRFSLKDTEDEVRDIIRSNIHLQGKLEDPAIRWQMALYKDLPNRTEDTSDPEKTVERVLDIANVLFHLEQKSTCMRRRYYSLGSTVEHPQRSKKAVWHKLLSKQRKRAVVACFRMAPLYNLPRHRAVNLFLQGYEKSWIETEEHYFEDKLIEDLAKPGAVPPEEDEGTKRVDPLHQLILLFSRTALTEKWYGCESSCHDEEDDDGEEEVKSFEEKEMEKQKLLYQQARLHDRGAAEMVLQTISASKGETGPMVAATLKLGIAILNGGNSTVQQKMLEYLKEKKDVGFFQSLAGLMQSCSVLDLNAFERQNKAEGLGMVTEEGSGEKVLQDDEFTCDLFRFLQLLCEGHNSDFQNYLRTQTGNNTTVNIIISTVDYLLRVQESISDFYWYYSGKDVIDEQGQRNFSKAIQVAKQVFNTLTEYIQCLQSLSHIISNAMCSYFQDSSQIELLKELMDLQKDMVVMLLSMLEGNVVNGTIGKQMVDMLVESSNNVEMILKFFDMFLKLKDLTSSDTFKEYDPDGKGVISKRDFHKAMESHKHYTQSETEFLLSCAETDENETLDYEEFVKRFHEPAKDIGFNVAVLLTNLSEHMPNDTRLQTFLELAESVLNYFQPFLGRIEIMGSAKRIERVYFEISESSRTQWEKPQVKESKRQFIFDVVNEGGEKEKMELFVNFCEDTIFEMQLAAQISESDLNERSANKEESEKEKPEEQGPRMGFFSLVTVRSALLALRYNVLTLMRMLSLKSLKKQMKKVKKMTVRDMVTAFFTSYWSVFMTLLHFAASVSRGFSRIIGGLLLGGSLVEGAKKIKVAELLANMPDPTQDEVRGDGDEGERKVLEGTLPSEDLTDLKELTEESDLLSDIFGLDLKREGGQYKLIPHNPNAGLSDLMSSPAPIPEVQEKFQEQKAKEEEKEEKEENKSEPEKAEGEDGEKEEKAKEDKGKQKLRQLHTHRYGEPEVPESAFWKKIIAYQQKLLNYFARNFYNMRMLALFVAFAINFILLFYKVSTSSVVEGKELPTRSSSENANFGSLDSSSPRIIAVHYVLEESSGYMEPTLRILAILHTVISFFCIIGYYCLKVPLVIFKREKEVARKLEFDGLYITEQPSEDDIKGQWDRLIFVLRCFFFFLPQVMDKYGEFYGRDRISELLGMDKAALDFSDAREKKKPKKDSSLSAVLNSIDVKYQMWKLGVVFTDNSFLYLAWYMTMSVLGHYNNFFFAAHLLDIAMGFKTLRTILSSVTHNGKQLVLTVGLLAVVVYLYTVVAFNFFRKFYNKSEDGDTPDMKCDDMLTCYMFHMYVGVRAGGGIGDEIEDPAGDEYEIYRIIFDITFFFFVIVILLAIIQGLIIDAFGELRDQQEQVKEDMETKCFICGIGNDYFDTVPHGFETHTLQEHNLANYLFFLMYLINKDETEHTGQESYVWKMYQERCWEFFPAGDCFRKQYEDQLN

Ca2+ spark frequency (RyR2 [4])	Ca2+ spark mediated SR Ca2+ leak (RyR2 [4])	SMILES	[3H]ryanodine binding (RyR1 activity) (RyR1)	[3H]ryanodine binding (RyR2 activity) (RyR2 [1])	Ca2+ spark mass (RyR2 [4])	other results
		CCCCC[C@@H]1OC(=O)[C@@H](C)N(C)C(=O)[C@H](CCCCC)OC(=O)[C@@H](C)N(C)C(=O)[C@H](CCCCC)OC(=O)[C@@H](C)N(C)C(=O)[C@H](CCCCC)OC(=O)[C@@H](C)N(C)C1=O (single isomer, unassigned) [ent-1, ent-(+)-verticilide]				ECG PR interval (Casq2^−/− mice; index of Ca2+ channel block): no significant effect; ECG QRS duration (Casq2^−/− mice; index of Na+ channel block): no significant effect; IC50 (RyR2 [1]): ~100 nM; maximal inhibition of [3H]ryanodine binding to RyR2 (RyR2 [1]; dose response, cardiac SR): approximately 20%
		CCCCCC1OC(=O)C(C)N(C)C(=O)C(CCCCC)OC(=O)C(C)N(C)C(=O)C(CCCCC)OC(=O)C(C)N(C)C(=O)C(CCCCC)OC(=O)C(C)N(C)C1=O (single isomer, unassigned; (-)) [nat-1, (−)-Verticilide]	increased	no effect		IC50 (insect RyR): 4200 nM; Ca2+ spark frequency (RyR2 [2]): no effect; binding to Ca2+ ([Ca2+]free) [3]: did not bind to Ca^2+
paradoxical increase	leak-neutral blocker	O=C(NCC1CCCCN1)c1cc(OCC(F)(F)F)ccc1OCC(F)(F)F (stereo not drawn) [flecainide]			reduces the amount of Ca^2+ released during a spark	effectiveness in suppressing spontaneous Ca2+ waves (spontaneous Ca^2+ waves): 30%
depresses	only modestly reduces	CCCCNc1ccc(C(=O)OCCN(C)C)cc1 [tetracaine]	inhibited	inhibited	did not reduce	
